# Laboratory results: patent US20050197350A1, “Novel quinoline, tetrahydroquinazoline, and pyrimidine derivatives and methods of treatment related to the use thereof” (TAISHO PHARMACEUTICAL CO., LTD., priority 2003, published 2005)
# Where a name gives a salt, the structure may show the parent alone.
# Biological target: MCH receptor (Homo sapiens, UniProt Q99705)
# Test: High throughput functional screening FLIPR/FDSS6000 (intracellular Ca2+ evoked by MCH)
# Type: cell-based
# Details: FLIPR/FDSS, antagonist activity vs 50 nM MCH; class by percent of control at 10^−7 M or IC50; read-out: class
# Summary of the method: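 For antagonist testing, compound-treated cells (30 min, 37 °C) were stimulated with 50 nM MCH and intracellular Ca2+ followed by Fluo4 fluorescence on FLIPR/FDSS6000. Receptor was a constitutively active, non-endogenous MCH receptor; dye loading 4 μM Fluo4-AM, 1 h, 37 °C.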
row,IC50,Structure (SMILES)
1,50 to 200 nM,"Cc1cnc(N[C@H]2CC[C@@H](NC(=O)Nc3cccc(F)c3)CC2)nc1N(C)C [Example 3325, N-(cis-4-{[4-(dimethylamino)-5-methylpyrimidin-2-yl]amino}cyclohexyl)-N′-(3-fluorophenyl)urea]"
2,50 to 200 nM,"Cc1cc(N[C@H]2CC[C@@H](C(=O)N[C@@H](C)c3ccc(Cl)cc3)CC2)nc2ccccc12 [Example 3306, cis-N-[(1S)-1-(4-chlorophenyl)ethyl]-4-[(4-methylquinolin-2-yl)amino]cyclohexanecarboxamide]"
3,50 to 200 nM,"Cc1cnc(N[C@H]2CC[C@@H](NC(=O)Nc3cc(Cl)cc(Cl)c3)CC2)nc1N(C)C [Example 3339, N-(3,5-dichlorophenyl)-N′-(cis-4-{[4-(dimethylamino)-5-methylpyrimidin-2-yl]amino}cyclohexyl)urea]"
4,50 to 200 nM,"Cc1cc(N(C)C)nc(N[C@H]2CC[C@@H](NC(=O)c3cccnc3S(=O)(=O)c3cccc(Cl)c3)CC2)n1 [Example 3370, 2-[(3-chlorophenyl)sulfonyl]-N-(cis-4-{[4-(dimethylamino)-6-methylpyrimidin-2-yl]amino}cyclohexyl)nicotinamide]"
5,> 200 nM,"Cc1cnc(N[C@H]2CC[C@@H](NC(=O)Nc3cccc(Cl)c3Cl)CC2)nc1N(C)C [Example 3343, N-(2,3-dichlorophenyl)-N′-(cis-4-{[4-(dimethylamino)-5-methylpyrimidin-2-yl]amino}cyclohexyl)urea]"

# Same assay, conditions: FLIPR/FDSS, antagonist activity vs 50 nM MCH; class by percent of control at 10^−7 M or IC50; table after the classification; read-out: class
row,IC50,Structure (SMILES)
1,> 200 nM,"CN(CCO)c1ccnc(N[C@H]2CC[C@@H](NC(=O)c3ccc(F)c(F)c3)CC2)n1 [Example 3227, 3,4-Difluoro-N-(cis-4-{4-[(2-hydroxy-ethyl)-methyl-amino]-pyrimidin-2-ylamino}-cyclohexyl)-benzamide hydrochloride]"
2,< 50 nM,"CN(CC(=O)N[C@H]1CC[C@@H](Nc2ccc3ccccc3n2)CC1)c1ccccc1 [Example 3066, C-(Methyl-phenyl-amino)-N-[cis-4-(quinolin-2-ylamino)-cyclohexyl]-acetamide dihydrochloride]"
3,50 to 200 nM,"CN(C)c1ccnc(N[C@H]2CC[C@@H](NCc3ccc(Br)cc3OC(F)(F)F)CC2)n1 [Example 17, N^2-[cis-4-(4-Bromo-2-trifluoromethoxy-benzyl)-amino-cyclohexyl]-N^4,N^4-dimethyl-pyrimidin-2,4-diamine dihydrochloride]"
4,< 50 nM,"O=C(N[C@H]1CC[C@@H](Nc2ccc3ccccc3n2)CC1)c1cccnc1Oc1ccc(Cl)cc1 [Example 3057, 2-(4-Chloro-phenoxy)-N-[cis-4-(quinolin-2-ylamino)-cyclohexyl]-nicotinamide hydrochloride]"
5,< 50 nM,"CN(C)c1ccnc(N[C@H]2CC[C@@H](NC(=O)COc3ccc(Cl)c(Cl)c3)CC2)n1 [Example 3393, 2-(3,4-Dichloro-phenoxy)-N-[cis-4-(4-dimethylamino-pyrimidin-2-ylamino)-cyclohexyl]-acetamide hydrochloride]"
6,< 50 nM,"Cc1cccc(C(=O)N[C@H]2CC[C@@H](Nc3ncc(C)c(N(C)C)n3)CC2)c1 [Example 3121, N-[cis-4-(4-Dimethylamino-5-methyl-pyrimidin-2-ylamino)-cyclohexyl]-3-methyl-benzamide hydrochloride]"
7,50 to 200 nM,"CNc1cc(N[C@H]2CC[C@@H](NCCc3ccc(Br)cc3OC(F)(F)F)CC2)nc2ccccc12 [Example 2, N^2-{cis-4-[2-(4-Bromo-2-trifluoromethoxy-phenyl)-ethylamino]-cyclohexyl}-N^4-methyl-quinoline2,4-diamine dihydrochloride]"
8,< 50 nM,"Cc1cc(N[C@H]2CC[C@@H](NC(=O)c3cccc(F)c3)CC2)nc2ccccc12 [Example 3170, 3-Fluoro-N-[cis-4-(4-methyl-quinolin-2-ylamino)-cyclohexyl]-benzamide hydrochloride]"
9,< 50 nM,"CN(C)c1ccnc(N[C@H]2CC[C@@H](NCCc3ccc(Br)cc3OC(F)(F)F)CC2)n1 [Example 18, N^2-{cis-4-[2-(4-Bromo-2-trifluoromethoxy-phenyl)-ethylamino]-cyclohexyl}-N^4,N^4-dimethyl-pyrimidine-2,4-diamine dihydrochloride]"
10,< 50 nM,"Cc1cnc(N[C@H]2CC[C@@H](CNC(=O)Nc3cccc(Cl)c3Cl)CC2)nc1N(C)C [Example 3125, 1-(2,3-Dichloro-phenyl)-3-[cis-4-(4-dimethylamino-5-methyl-pyrimidin-2-ylamino)-cyclohexylmethyl]-urea hydrochloride]"
11,50 to 200 nM,"Cc1cc(N[C@H]2CC[C@@H](NC(=O)c3cc(Cl)ccn3)CC2)nc2ccccc12 [Example 3184, 4-Chloro-pyridine-2-carboxylic acid [cis-4-(4-methyl-quinolin-2-ylamino)-cyclohexyl]-amide hydrochloride]"
12,50 to 200 nM,"Cc1cc(N[C@H]2CC[C@@H](NC(=O)c3c(F)cccc3F)CC2)nc2ccccc12 [Example 3165, 2,6-Difluoro-N-[cis-4-(4-methylquinolin-2-ylamino)-cyclohexyl]-benzamide hydrochloride]"
13,< 50 nM,"Cc1cnc(N[C@H]2CC[C@@H](NC(=O)c3ccc(Cl)c(F)c3)CC2)nc1N(C)C [Example 3387, 4-Chloro-N-[cis-4-(4-dimethylamino5-methyl-pyrimidin-2-ylamino)-cyclohexyl]3-fluoro-benzamide hydrochloride]"
14,50 to 200 nM,"O=C(NC[C@H]1CC[C@@H](Nc2ccc3ccccc3n2)CC1)c1ccc(F)c(F)c1 [Example 3068, 3,4-Difluoro-N-[cis-4-(quinolin-2-ylamino)-cyclohexylmethyl]-benzamide hydrochloride]"
